Consider 3 compounds from patent US7902384B2, “Estrogenic-active compounds and application thereof” (National Taiwan University, priority 2008, dated 2011).

Each structure is given as a SMILES string. Where “and” joins values, the source holds several entries; their conditions need not be identical. Equal values may be shown once.

Assay [1] has as its target T1, GAL4-hERβ (Homo sapiens, UniProt Q92731). The experiment in a line: Estrogenic activity assay: GAL4-hERβ LBD / (UAS)4-ALP reporter in transfected CHO-k1 cells, single addition of sample. To be noted: for EC50: read-out: EC50 for ERβ (converted); for ERβ versus ERα selectivity of activation: comparison of ERα and ERβ reporter activation. Set-up: expressed in transfected cells; host or cells: CHO-k1 (Chinese hamster cells). It is filed as cell-based. The text has this: (§1) First, a method for assessing the estrogenic activity in the field samples was established. This method comprises: preparing a cell line transfected with plasmids which can screen estrogenic activity substances. […] The reporter gene in the plasmid was expressed when the sample to be assayed contains estrogenic activity. Among them, the samples to be assayed in the examples of the invention include Loliolide, (4S,6S)-4-Hydroxy-6-nonadecyl-tetrahydro-pyran-2-one, (4R,6S)-4-Hydroxy-6-nonadecyl-tetrahydro-pyran-2-one. […] The details of establishing the assessing method are described as follows: […]

The target in assay [2] is T2, GAL4-hERα (Homo sapiens, UniProt P03372).
T2 sequence (P03372 311-547 limits assumed): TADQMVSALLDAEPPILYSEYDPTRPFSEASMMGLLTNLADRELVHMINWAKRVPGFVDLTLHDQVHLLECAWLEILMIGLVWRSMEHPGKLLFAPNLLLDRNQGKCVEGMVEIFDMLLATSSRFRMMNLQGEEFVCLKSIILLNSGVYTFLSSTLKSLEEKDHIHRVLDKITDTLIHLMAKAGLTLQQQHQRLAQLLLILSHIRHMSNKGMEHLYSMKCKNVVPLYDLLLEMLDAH
The experiment in a line: Estrogenic activity assay with co-addition of 1 nM 17β-estradiol (antagonism or synergistic agonism), GAL4-hERα reporter in CHO-k1 cells. To be noted: co-added with 1 nM 17β-estradiol, vs single addition of estrogen, p<0.05.
From the text: (§2) Plasmid pBKCMV containing GAL4hERα (or ERβ) ligand binding domain (LBD) chimeric receptors and plasmid containing (UAS)4-alkaline phosphatase (ALP) reporter gene were co-transfected into Chinese hamster cells (CHO-k1). Compounds with estrogenic activity would interact with estrogen-specific ER to induce the binding of GAL4 and upstream activation sequence (UAS) specifically to initiate the expression of ALP gene. Therefore, the ALP activity can be used to determine whether the samples to be assayed have the estrogenic activity.
(§3) Cells in high confluence were plated onto 96-well culture plate the day before transfection. The plate was then washed to remove the serum during the day of transfection, followed by addition of two plasmid DNA, GAL4-hERα and (UAS)4-ALP in the ratio of 5:1, or GAL4-hERβ and (UAS)4-ALP in the ratio of 4:1, together with Lipofectamine™ 2000 transfection agent and culture medium to form DNA-liposome complex for 5 h.
(§4) The sample to be assayed was added into the medium of transfected cells and cultivated for 2 days.

Assay [3] addresses T1, GAL4-hERβ. The experiment in a line: Estrogenic activity assay with co-addition of 1 nM 17β-estradiol (antagonism or synergistic agonism), GAL4-hERβ reporter in CHO-k1 cells. To be noted: co-added with 1 nM 17β-estradiol, vs single addition of estrogen, p<0.05.
From the text: as §2, §3, §4
The target of assay [4] is T2, GAL4-hERα. The assay is described as follows: Estrogenic activity assay: GAL4-hERα LBD / (UAS)4-ALP reporter in transfected CHO-k1 cells, single addition of sample. Details: expressed in transfected cells; host or cells: CHO-k1 (Chinese hamster cells). As to conditions: for EC50: read-out: EC50 for ERα (converted). It is filed as cell-based.
From the text: as §1

[5] abbreviates: ALP reporter, CHO-k1, single addition.

The EC50 is the concentration giving half of the maximal effect.

T1 sequence (Q92731 264-498 limits assumed): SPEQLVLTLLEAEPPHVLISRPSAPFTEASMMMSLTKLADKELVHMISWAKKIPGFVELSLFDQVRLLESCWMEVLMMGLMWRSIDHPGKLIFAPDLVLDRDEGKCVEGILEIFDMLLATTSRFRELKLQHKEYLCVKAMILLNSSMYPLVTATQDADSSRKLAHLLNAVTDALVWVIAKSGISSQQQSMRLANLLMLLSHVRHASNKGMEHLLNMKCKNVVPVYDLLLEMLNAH

Consider `CCCCCCCCCCCCCCCCCCC[C@H]1C[C@@H](O)CC(=O)O1` [(4R,6S)-4-Hydroxy-6-nonadecyl-tetrahydro-pyran-2-one], for which, at GAL4-hERβ [1] (setting [5]), the “concentration at which maximal activation of ERβ activity was achieved” value (from here on “concentration … of ERβ activity was achieved”) turned out to be 10 µg/mL and the EC50 was 8.94 µM. In addition, the “ERβ versus ERα selectivity of activation” value on GAL4-hERβ [1] is reported as “better activation efficiency in ERβ”. For the same compound, the “concentration at which activation of ERα due to estrogen was significantly decreased” value at GAL4-hERα [2] was determined as 2 µg/mL. The “concentration at which activation of ERβ due to estrogen was significantly decreased” value at GAL4-hERβ [3] is 2 µg/mL. The “concentration at which maximal activation of ERα activity was achieved” value (“concentration … of ERα activity was achieved” for short) on GAL4-hERα [4] was found to be 20 µg/mL.
As for `CCCCCCCCCCCCCCCCCCC[C@H]1C[C@H](O)CC(=O)O1` [(4S,6S)-4-Hydroxy-6-nonadecyl-tetrahydro-pyran-2-one], at GAL4-hERβ [1] (setting [5]), the “concentration … of ERβ activity was achieved” value is 10 µg/mL and the EC50 was 4.68 µM. The “ERβ versus ERα selectivity of activation” value at GAL4-hERβ [1] is on record as “better activation efficiency in ERβ”. Further, the “concentration at which activation of ERα due to estrogen was significantly decreased” value at GAL4-hERα [2] was found to be 1 µg/mL. For the same compound, the “concentration at which activation of ERβ due to estrogen was significantly decreased” value on GAL4-hERβ [3] is 2 µg/mL. For the same compound, at GAL4-hERα [4], the “concentration … of ERα activity was achieved” value amounted to 10 µg/mL and the EC50 is 16.2 µM.
On to `CC1(C)C[C@H](O)C[C@@]2(C)OC(=O)C=C12` [Loliolide], for which, on GAL4-hERβ [1] (setting [5]), the “concentration … of ERβ activity was achieved” value was 20 µg/mL; the “concentration at which maximal activation of the estrogenic activity was achieved (ERβ)” value amounted to 102.0 µM; the EC50 was 17.9 µM and 18 µM. In addition, on GAL4-hERβ [1], the “ERβ versus ERα selectivity of activation” value was “better activation efficiency in ERβ”. In addition, on GAL4-hERα [2], the “concentration at which activation of ERα due to estrogen was significantly decreased” value was found to be 10.1 µM. On GAL4-hERβ [3], the “concentration at which activation of ERβ due to estrogen was significantly decreased” value was found to be 204 µM. At GAL4-hERα [4], the “concentration … of ERα activity was achieved” value turned out to be 20 µg/mL, the “concentration at which maximal activation of the estrogenic activity was achieved (ERα)” value was 102.0 µM and the EC50 is 54.2 µM.
